Values belong to the compound of their own block, whether it stands above or below them.
What was measured:
human PBMCs [1] = assay: XTT cytotoxicity test of PBMCs transfected with LPX-formulated EPO mRNA; assay type: cell-based; conditions: 24 h, up to 1 μg/well mRNA
Procedure: Human buffy coats from healthy individuals were obtained from the Faculty of Medicine of Johannes Gutenberg University, Mainz and used to isolate peripheral blood mononuclear cells (PBMCs) on a Ficoll-Paque™ PLUS (Cytiva, Marlborough, MA, USA) density gradient. In preparation for mRNA transfection, cryopreserved PBMCs were thawed and seeded into 96-well plates at a density of 5×10^5 cells per well in 190 μL RPMI medium supplemented with 1% non-essential amino acids (NEAA), 1% sodium pyruvate and 10% Fetal Bovine Serum (Merck, Germany). Cells were maintained at 37° C. with 5% CO2 until transfection with 0.5, 1.5, 5.0 and 15 μg/ml lipoplex-formulated EPO mRNA (LPX-RNA), as described in Kranz, L. M., et al. (2016) Nature, 534, 396-401. The complexed RNA (10 μl per well) was added in triplicates and supernatants were collected at 24 h after transfection to perform single cell cytotoxicity assay and to measure the cytokine/chemokine profile. […] The levels of IL-6 (Interleukin 6), TNF-α (Tumor necrosis factor alpha), IL-1 (Interleukin 1 beta), IFN-γ (Interferon gamma), MCP-1 (Monocyte Chemoattractant Protein-1), […] (Macrophage inflammatory protein 1 beta) and IL-10 (Interleukin 10) were quantified 24 h after the mRNA transfection. […]

human PBMCs [2] = assay: Cytokine/chemokine secretion in human PBMCs (MSD V-PLEX); assay type: cell-based; conditions: for proinflammatory cytokine/chemokine responses compared to m1Ψ-modified mRNA: lipid-complexed U-containing mRNA, even at lowest dose 0.5 μg/ml
Procedure: Human buffy coats from healthy individuals were obtained from the Faculty of Medicine of Johannes Gutenberg University, Mainz and used to isolate peripheral blood mononuclear cells (PBMCs) on a Ficoll-Paque™ PLUS (Cytiva, Marlborough, MA, USA) density gradient. In preparation for mRNA transfection, cryopreserved PBMCs were thawed and seeded into 96-well plates at a density of 5×10^5 cells per well in 190 μL RPMI medium supplemented with 1% non-essential amino acids (NEAA), 1% sodium pyruvate and 10% Fetal Bovine Serum (Merck, Germany). Cells were maintained at 37° C. with 5% CO2 until transfection with 0.5, 1.5, 5.0 and 15 μg/ml lipoplex-formulated EPO mRNA (LPX-RNA), as described in Kranz, L. M., et al. (2016) Nature, 534, 396-401. The complexed RNA (10 μl per well) was added in triplicates and supernatants were collected at 24 h after transfection to perform single cell cytotoxicity assay and to measure the cytokine/chemokine profile. To determine the cell viability and the production of selected cytokines/chemokines, supernatants from human PBMCs transfected with LPX-RNA were subjected to XTT cytotoxicity test using Cell Proliferation Kit II (Sigma-Aldrich) and cytokine/chemokine profile analysis using the Meso Scale Discovery V-PLEX Custom Human Biomarkers Proinflammatory and Chemokine Panel (Meso Scale Diagnostics—MSD, Rockville, MD, USA) according to the manufacturer's instructions, respectively. In regards of cytokine/chemokine profile analysis, a sample dilution of 1:5 (supernatant:MSD diluent) was used in each experiment. The levels of IL-6 (Interleukin 6), TNF-α (Tumor necrosis factor alpha), IL-1 (Interleukin 1 beta), IFN-γ (Interferon gamma), MCP-1 (Monocyte Chemoattractant Protein-1), […] (Macrophage inflammatory protein 1 beta) and IL-10 (Interleukin 10) were quantified 24 h after the mRNA transfection. […] This low immunogenicity can be directly attributed to the nucleoside modifications incorporated into the mRNA. To illustrate this, cells treated with lipid-complexed U-containing mRNA capped with compound I′-1, CC114 and CC413 induced much higher proinflammatory cytokine/chemokine responses even at their lowest dose (0.5 μg/ml) when compared to m1Ψ-modified mRNA (FIG. 6).
To test the effect of the cap types and mRNA 5′end on immunogenicity in human peripheral blood monocyte cells (PBMCs) we compared changes in levels of cytokines and chemokines after application of Lipoplex (LPX)-formulated EPO mRNAs. First, we compared the impact of m1Ψ-mRNA capped with I′-6 containing a UAGU 5′end vs. CC413 (AGAAU 5′end) (FIG. 12). […] Second, we compared capped EPO uRNA with I′-6 or I′-1 (FIG. 14). In this case both mRNAs had the same TAGT 5′end. […] Thus, benefit of I′-6 in decreasing the immunogenicity and thus increasing safety was found when I′-6 was used.

[3] = test system: human primary hepatocytes; assay: EPO secretion in human primary hepatocytes transfected with TransIT-EPO mRNA (ELISA); assay type: cell-based
Procedure: To measure the translational efficiency of EPO mRNA capped with compound I′-1, compound I′-6, CC114, and CC413 in vitro, human primary hepatocytes were seeded into 96-well plates at a density of 2.5×10^4 cells per well and were transfected with mRNA samples (0.1 μg) complexed with TransIT reagent (Mirus Bio, Madison, WI, USA) in a final volume of 200 μL in InVitroGRO CP Medium (Sigma-Aldrich) supplemented with Thorpedo Antibiotic Mix (Sigma-Aldrich). To quantify EPO levels, the supernatant was collected at 1, 2, 3, 4, 5 and 6 day after transfection and EPO levels were analyzed by mouse Erythropoietin DuoSet ELISA kit (R&D Systems, Minneapolis, MN, USA) according to the manufacturer's instructions.
(§1) In each in vivo experiment in order to measure the translational efficiency and to determine the functionality of EPO mRNA capped with I′-1, I′-2, I′-3, I′-5, I′-6, I′-9, I′-12, I′-13, I′-16, CC114, and CC413 in vivo, female BALB/c mice from Jackson Laboratory (Bar Harbor, ME, USA) at the age of eight to ten weeks were used for in accordance with federal policies on animal research (Ethics approval number: G19-12-074). In each case, mice (n=3/group) were injected intravenously (i.v.) with 3 μg TransIT-complexed (Mirus Bio) EPO mRNAs in a final volume of 200 μL Dulbecco's modified Eagle medium (DMEM). Mice used as controls were injected with TransIT-reagent diluted in DMEM but without RNA. To measure hematocrits and EPO levels in the individual mice that were injected with EPO mRNA capped with I′-6, I′-1, CC114, and CC413 and complexed with TransIT-reagent, 18 μL of blood was collected at the indicated times (FIG. 8B) and centrifuged in Drummond microcaps glass capillary tubes (20 μl volume, Merck, Germany) as described (19). After determination of the hematocrit, capillary tubes were snapped open, and the plasma was collected to measure EPO levels and analyzed for mouse Erythropoietin DuoSet ELISA kit (R&D Systems) according to the manufacturer's instructions. […] EPO RNA containing m1Ψ modifications translated 2-3-fold, 5-fold, and 10-fold more than U-containing mRNAs at 6-24, 48 and 72 hours after injections, respectively. (FIG. 8A). […] To address translation of I′-6-capped mRNA in human primary hepatocytes, EPO level was measured from supernatants transfected using 0.1 μg/well TransIT-formulated I′-6- or CC114-capped uRNA (FIG. 13).
To test if various uridine (U) or pseudouridine (Ψ) derivatives of cap analogues can improve translation in human primary hepatocytes, we first measured EPO secretion after application of EPO-encoding Ψ-mRNA capped with compounds described herein analog bearing pseudouridine (I′-3) or CC413 (no modification). […] In addition, all tested modification bearing caps led to increase in EPO secretion at 24 h and 48 h when compared to the unmodified I′-1 (FIG. 16).

BALB/c mice [4] = assay: Plasma EPO in mice IV injected with 3 μg TransIT-complexed EPO mRNA (ELISA); assay type: in vivo
Procedure: (§2) To confirm in vitro data, female BALB/c mice from Jackson Laboratory (Bar Harbor, ME, USA) at the age of eight to ten weeks were used for in vivo experiment in accordance with federal policies on animal research (Ethics approval number: G18-12-027). Mice (n=3/group) were injected intravenously (i.v.) with 3 μg TransIT-complexed (Mirus Bio) EPO mRNAs in a final volume of 200 μL Dulbecco's modified Eagle medium (DMEM). Mice used as controls were injected with TransIT-reagent diluted in DMEM but without RNA. Mice were injected with EPO mRNA complexed with TransIT-reagent and EPO levels in plasma were measured using ELISA (FIG. 8A). Hematocrit was measured from 18 μl of blood that was collected at the indicated times using centrifugation in Drummond microcaps glass capillary tubes (20 μl volume, Merck, Germany) as described (20) (FIG. 8B). After determination of the hematocrit, capillary tubes were snapped open, and the plasma was collected to measure EPO levels and analyzed for mouse Erythropoietin DuoSet ELISA kit (R&D Systems) according to the manufacturer's instructions. […] EPO RNA containing m1Ψ translated two-fold more than U-containing mRNA at each time points (FIG. 8A). Both compound I′-1 and compound I′-6 are suitable for translation of the encoded protein and each cap analog can be used for synthesizing of non-replicating functional mRNAs (FIG. 8A, 8B).
as §1
To this end, we generated U-containing as well as m1Ψ-modified EPO RNA capped with cap analogs which belong to either the non-ARCA (I′-13) or ARCA (I′-6) classes. Moreover, the latter ones contain 2′-OMe (I′-5) or 3′-OMe (I′-6) at the ribose of the m7G moiety. Three μg of TransIT-complexed EPO mRNA capped with nucleoside modification-containing NeoCaps I′-13, I′-5 and I′-6 cap analogs were injected into mice intravenously. After that EPO level of plasma collected from mice was measured at 6, 24 and 48 hours after administration to compare the translational activity of mRNA capped with NeoCaps with U-containing or m1Ψ-modified mRNA capped with non-modified ARCA 3′OMe I′-1.
Plasma EPO level of mice injected with 3 μg of each TransIT-complexed mRNA was determined using murine EPO-specific ELISA at 6, 24, 48 and 72 hours after intravenous administration. […]

BALB/c mice [5] = assay: Hematocrit in mice IV injected with 3 μg TransIT-complexed EPO mRNA; assay type: in vivo; conditions: D14 after injection
Procedure: as §2, §1

proinflammatory cytokine/chemokine responses compared to m1Ψ-modified mRNA (human PBMCs [2]): much higher | cytokines/chemokines, compared with CC413 (human PBMCs [2]; unmodified mRNA, 24 h): significantly higher
Compound: COC1C(OP(=O)([O-])OC[C@H]2O[C@@H](n3ccc(=O)[nH]c3=O)C(O)C2O)[C@@H](COP(=O)(O)OP(=O)(O)OP(=O)(O)OC[C@H]2O[C@@H](n3c[n+](C)c4c(O)nc(N)nc43)C(O)C2OC)O[C@H]1n1cnc2c(N)ncnc21 (stereo partly drawn) [I′-1, m^7G(^3′-OMe)pppA(2′-OMe)pU]
toxic effect on cell viability (XTT) (human PBMCs [1]): no toxic effect | translation (EPO secretion) compared to CC413 ([3]; 0.1 μg/well TransIT-EPO mRNA, 24 hrs): higher translation | translation compared to CC413 ([3]; unmodified RNA, each time point after transfection (day 1-6)): higher translation | translational capacity compared with m1Ψ in cap (I′-6) and mRNA (BALB/c mice [4]; U-containing mRNA, each time point): significantly lower | translation of ARCA analogs compared to non-ARCA caps CC114 and I′-13 (BALB/c mice [4]; regardless of the RNA modification): significantly better | decrease of hematocrit values from D14 (BALB/c mice [5]): not observed

Compound: COC1C(OP(=O)(O)OC[C@H]2O[C@@H](c3c[nH]c(=O)[nH]c3=O)C(O)C2O)[C@@H](COP(=O)(O)OP(=O)([O-])OP(=O)(O)OC[C@H]2O[C@@H](n3c[n+](C)c4c(O)nc(N)nc43)C(O)C2OC)O[C@H]1n1cnc2c(N)ncnc21 (stereo partly drawn) [I′-3, m^7G(^3′-OMe)pppA(2′-OMe)pΨ]
level of EPO compared to CC413 ([3]; EPO-encoding Ψ-mRNA, 24 h and 48 h): higher | EPO level compared to I′-6 (BALB/c mice [4]; m1Ψ-modified mRNA, 48 and 72 hours after injection): equal or slightly less

Compound: COC1C(OP(=O)(O)OC[C@H]2O[C@@H](c3cn(C)c(=O)[nH]c3=O)C(O)C2O)[C@@H](COP(=O)(O)OP(=O)([O-])OP(=O)(O)OC[C@H]2O[C@@H](n3c[n+](C)c4c(O)nc(N)nc43)C(O)C2O)O[C@H]1n1cnc2c(N)ncnc21 (stereo partly drawn) [I′-13, m^7GpppA(2′-OMe)pm^1Ψ]
translation of m1Ψ-mRNA capped with I′-13 relative to U-mRNA capped with CC114 (BALB/c mice [4]; 6 h after injection): 8 fold | translation of m1Ψ-mRNA capped with I′-13 relative to U-mRNA capped with CC114 (BALB/c mice [4]; 24 h after injection): 25 fold | translation compared to mRNA capped with non-modified ARCA cap (BALB/c mice [4]; each tested time point (6, 24, 48 h), regardless of the mRNA modification): at least two-fold better

proinflammatory cytokine/chemokine responses compared to m1Ψ-modified mRNA (human PBMCs [2]): much higher
Compound: (m2^7,3′-O)Gppp(m^2′-O)ApG [CC413, reference compound]
translational efficiency and biological activity (murine EPO, hematocrit %) of EPO mRNA (BALB/c mice [4]; FIG. 1, CC413 vs CC113): significantly better than CC113 | decrease of hematocrit values from D14 (BALB/c mice [5]): started to decrease at D14

proinflammatory cytokine/chemokine responses compared to m1Ψ-modified mRNA (human PBMCs [2]): much higher
Compound: (m^7)Gppp(m^2′-O)ApU [CC114, reference compound]
decrease of hematocrit values from D14 (BALB/c mice [5]): started to decrease at D14
